# Source: patent publication US12589158B2 (priority 2022, dated 2026)
# Where a SMILES comes first, the peptide text is derived from it.
# Tests used:
# [1] = biological target: T1, human GLP-1 receptor (Homo sapiens, UniProt P43220); test: In vitro binding activity to human GLP-1 receptor ([125I]GLP-1, crude cellular membranes); conditions: ratio of the Ki value of the endogenous ligand to the Ki value of the test compound; larger = stronger binding
# T1 construct: expressed in transfected cells; crude membranes
# Experimental: 89 μL of membrane dissolved in binding buffer (50 mM Hepes, pH 7.4, 5 mM MgCl2, 5 mM EDTA, 0.005% TWEEN, 0.005% HSA) is transferred to a 96-well test plate (5 μg/well). The compound is serially diluted in DMSO, and then, 1 μL of the diluted compound or 100% DMSO is added to the test plate containing the membrane solution. 10 μL of [^125I] […] The test plate is left at room temperature for 90 minutes. The membrane complexes are harvested into a GF/B plate pre-coated with 0.5% PEI by using a Cell Harvester, and washed for 3 times with 500 μL of pre-cooled elution buffer (50 mM Hepes, pH 7.4, 500 mM NaCl) at 4° C. After drying at 37° C. for 2 hours, 50 μL of scintillation fluid is added to each well. The plate is read with a MicroBeta2 scintillation counter after sealing and settling for at least 1 hour so as to determine the membrane bound radioligand level.
# (§1) The absolute IC50 concentration of the compound is derived by non-linear regression of the binding percent of [^125I] […] The IC50 concentration is converted to Ki (Ki is the inhibition constant) using the Cheng-Prusoff equation.
# [2] = biological target: T2, human GIP receptor (Homo sapiens, UniProt P48546); test: In vitro binding activity to human GIP receptor ([125I]GIP, crude cellular membranes); conditions: ratio of the Ki value of the endogenous ligand to the Ki value of the test compound; larger = stronger binding
# T2 construct: expressed in transfected cells; crude membranes
# T2 sequence (P48546 22-466): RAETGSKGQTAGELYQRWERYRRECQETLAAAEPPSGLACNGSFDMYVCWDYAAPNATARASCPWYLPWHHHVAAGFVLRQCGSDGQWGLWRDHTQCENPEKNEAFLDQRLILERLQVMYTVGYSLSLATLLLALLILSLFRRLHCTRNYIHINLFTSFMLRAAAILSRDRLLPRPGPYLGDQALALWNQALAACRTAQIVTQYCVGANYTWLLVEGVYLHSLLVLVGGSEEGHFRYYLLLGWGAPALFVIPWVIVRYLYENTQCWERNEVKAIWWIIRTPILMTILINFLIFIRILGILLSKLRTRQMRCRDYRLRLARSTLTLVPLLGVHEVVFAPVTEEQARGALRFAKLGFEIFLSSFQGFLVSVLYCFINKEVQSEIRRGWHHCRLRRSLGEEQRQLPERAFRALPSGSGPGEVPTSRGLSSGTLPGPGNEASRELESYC
# Experimental: The compound is serially diluted in DMSO, and then, 2 μL of the diluted compounds or 100% DMSO is added to the test plate containing the membrane solution. […] The test plate is left at room temperature for 90 minutes. […] After drying at 37° C. for 2 hours, 50 μL of scintillation fluid is added to each well. The plate is read with a MicroBeta2 scintillation counter after sealing and settling for at least 1 hour so as to determine the membrane bound radioligand level.
# as §1
# [3] = tested on: db/db mice; test: Pharmacodynamics in db/db mice, single subcutaneous administration (blood glucose); assay type: in vivo; conditions: Group 1, single s.c. 10 nmol/kg, longest time with random blood glucose P<0.05 vs. vehicle
# Experimental: The “inhibition of blood glucose AUC” as disclosed in the present invention is the reduction percentage of blood glucose AUC in the group taken the test compound as compared with the group taken the Vehicle. Inhibition of blood glucose AUC=(blood glucose AUCVehicle-blood glucose AUCtest compound)/blood glucose AUCVehicle.
# In this study, 8-9 week old male db/db mice are used. The db/db mice are placed in an individual ventilated cage (IVC) facility with a controlled temperature (20-26° C.) and humidity (40-70%) and a controlled 12h: 12 h light-dark cycle. The mice received food and water ad libitum. Blood is sampled at the tail tip, and the fasting blood glucose is measured by a Roche blood glucose meter. The mice are randomly divided into groups according to the initial blood glucose and initial body weight (n=6/group), and each group had similar body weight and blood glucose.
# After a single subcutaneous administration, the random blood glucoses are recorded at the set time point (0 to 120 hours, the recording of the random blood glucose is stopped until there is no difference between the random blood glucose of the compound and that of the vehicle group), and the daily body weight and food intake are also recorded. The data results are statistically analyzed using GraphPad Prism8, and the statistical differences among the groups are analyzed following a T-Test. […]
# T1 sequence (P43220 24-463): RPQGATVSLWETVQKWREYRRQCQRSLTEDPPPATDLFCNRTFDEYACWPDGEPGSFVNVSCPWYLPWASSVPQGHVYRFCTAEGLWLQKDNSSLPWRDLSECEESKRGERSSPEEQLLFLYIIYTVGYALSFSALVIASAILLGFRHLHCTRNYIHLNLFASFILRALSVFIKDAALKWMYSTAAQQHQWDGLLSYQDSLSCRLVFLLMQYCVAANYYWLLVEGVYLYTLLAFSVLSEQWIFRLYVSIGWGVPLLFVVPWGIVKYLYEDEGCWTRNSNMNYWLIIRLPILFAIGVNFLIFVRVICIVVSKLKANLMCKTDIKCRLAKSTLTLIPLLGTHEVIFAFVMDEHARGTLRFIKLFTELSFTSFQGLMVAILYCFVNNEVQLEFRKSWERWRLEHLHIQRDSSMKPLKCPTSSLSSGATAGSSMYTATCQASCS
smiles,measurement,setting,value
"CC[C@H](C)[C@H](NC(=O)C(C)(C)NC(=O)[C@H](Cc1ccc(O)cc1)NC(=O)[C@H](CC(=O)O)NC(=O)[C@H](CO)NC(=O)[C@@H](NC(=O)C(C)(Cc1ccccc1)NC(=O)[C@@H](NC(=O)CNC(=O)[C@H](CCC(=O)O)NC(=O)C(C)(C)NC(=O)[C@@H](N)Cc1ccc(O)cc1)[C@@H](C)O)[C@@H](C)O)C(=O)NC(C)(C)C(=O)N[C@@H](CC(C)C)C(=O)N[C@@H](CC(=O)O)C(=O)N[C@@H](CCCCN)C(=O)N[C@@H](CCC(N)=O)C(=O)N[C@@H](C)C(=O)N[C@@H](CCC(N)=O)C(=O)N[C@@H](C)C(=O)N[C@@H](CCC(=O)O)C(=O)N[C@@H](Cc1ccccc1)C(=O)N[C@H](C(=O)N[C@@H](CCCCN)C(=O)N[C@@H](Cc1c[nH]c2ccccc12)C(=O)N[C@@H](CC(C)C)C(=O)N[C@@H](CC(C)C)C(=O)N[C@@H](CCCCN)C(=O)NCC(=O)NCC(=O)N1CCC[C@H]1C(=O)N[C@@H](CO)C(=O)N[C@@H](CO)C(=O)NCC(=O)N[C@@H](C)C(=O)N1CCC[C@H]1C(=O)N1CCC[C@H]1C(=O)N1CCC[C@H]1C(=O)N[C@@H](CO)C(=O)N[C@@H](CCCCN)C(N)=O)C(C)C (stereo partly drawn) [P001, reference compound] (HELM PEPTIDE1{Y.[Aib].E.G.T.[CC(Cc1ccccc1)(N[*:1])C(=O)[*:2]].T.S.D.Y.[Aib].I.[Aib].L.D.K.Q.A.Q.A.E.F.V.K.W.L.L.K.G.G.P.S.S.G.A.P.P.P.S.K.[am]}$$$$V2.0; N-terminus assumed)",GLP-1R Ki ratio,[1],19.52
same,GIPR Ki ratio,[2],8.82
same,Hypoglycemic Duration,[3],32 h
